The source made the active and inactive calls. No cut-off for these calls is given here.
How the values were obtained:
[1] = system: Rattus norvegicus; assay: Toxicity in albino Wistar rat assessed as total cholesterol level at 5 mg/kg/day, po for 15 days (reference value: 114.97 +/- 4.76 mg/dl); format: organism-based; details: in vivo, 360 h
[2] = system: Rattus norvegicus; assay: Inhibition of L-T4-induced increase in T3 level in albino Wistar rat at 2.5 mg/kg/day, po cotreated with 0.5 mg/kg L-T4 for 15 days by RIA (reference value: 1.55 +/- 0.131 ng/ml); format: functional
[3] = system: Rattus norvegicus; assay: Inhibition of L-T4-induced decrease in catalase activity in albino Wistar rat liver assessed as H2O2 decomposition at 5 mg/kg/day, po cotreated with 0.5 mg/kg L-T4 for 15 days by spectrophotmetry; format: functional, organism-based
[4] = system: Rattus norvegicus; assay: Inhibition of L-T4-induced decrease in low-density lipoprotein cholesterol in albino Wistar rat at 5 mg/kg/day, po cotreated with 0.5 mg/kg L-T4 for 15 days (reference value: 31.68 +/- 4.25 mg/dl); format: functional
[5] = system: Rattus norvegicus; assay: Inhibition of L-T4-induced increase in T4 level in albino Wistar rat at 10 mg/kg/day, po cotreated with 0.5 mg/kg L-T4 for 15 days by RIA (reference value: 112.86 +/- 4.77 ng/ml); format: functional
[6] = system: Rattus norvegicus; assay: Inhibition of L-T4-induced increase in T4 level in albino Wistar rat at 2.5 mg/kg/day, po cotreated with 0.5 mg/kg L-T4 for 15 days by RIA (reference value: 112.86 +/- 4.77 ng/ml); format: functional
[7] = system: Rattus norvegicus; assay: Inhibition of L-T4-induced increase in T3 level in albino Wistar rat at 5 mg/kg/day, po cotreated with 0.5 mg/kg/day L-T4 for 15 days by RIA (reference value: 1.55 +/- 0.131 ng/ml); format: functional
[8] = system: Rattus norvegicus; assay: Toxicity in albino Wistar rat assessed as high-density lipoprotein cholesterol level at 5 mg/kg/day, po for 15 days (reference value: 45.52 +/- 3.08 mg/dl); format: organism-based; details: in vivo, 360 h
[9] = system: Rattus norvegicus; assay: Inhibition of L-T4-induced increase in Glucose-6-phosphate activity in albino Wistar rat at 5 mg/kg/day, po cotreated with 0.5 mg/kg L-T4 for 15 days […]; format: functional, organism-based
[10] = system: Rattus norvegicus; assay: Inhibition of L-T4-induced decrease in total cholesterol level in albino Wistar rat at 5 mg/kg/day, po cotreated with 0.5 mg/kg L-T4 for 15 days (reference value: 58.77 +/- 3.95 mg/dl); format: functional
[11] = system: Rattus norvegicus; assay: Toxicity in albino Wistar rat assessed as low-density lipoprotein cholesterol level at 5 mg/kg/day, po for 15 days (reference value: 83.85 +/- 2.96 mg/dl); format: organism-based; details: in vivo, 360 h
[12] = system: Rattus norvegicus; assay: Toxicity in albino Wistar rat assessed as triglyceride level at 5 mg/kg/day, po for 15 days (reference value: 73.33 +/- 3.1 mg/dl); format: organism-based; details: in vivo, 360 h
[13] = system: Rattus norvegicus; assay: Inhibition of L-T4-induced decrease in triglyceride level in albino Wistar rat at 5 mg/kg/day, po cotreated with 0.5 mg/kg L-T4 for 15 days (reference value: 42.15 +/- 3.23 mg/dl); format: functional
[14] = system: Rattus norvegicus; assay: Inhibition of L-T4-induced increase in T3 level in albino Wistar rat at 10 mg/kg/day, po cotreated with 0.5 mg/kg L-T4 for 15 days by RIA (reference value: 1.55 +/- 0.131 ng/ml); format: functional
[15] = system: Rattus norvegicus; assay: Inhibition of L-T4-induced decrease in GSH level in albino Wistar rat liver at 5 mg/kg/day, po cotreated with 0.5 mg/kg L-T4 for 15 days; format: functional, organism-based
[16] = system: Rattus norvegicus; assay: Inhibition of L-T4-induced increase in lipid peroxidation in albino Wistar rat assessed as malondialdehyde formed per mg of protein at 10 mg/kg/day, po cotreated with 0.5 mg/kg L-T4 for 15 days (reference value: 0.977 +/- 0.035 nM/hr); format: functional
[17] = system: Rattus norvegicus; assay: Toxicity in albino Wistar rat assessed as very low-density lipoprotein cholesterol level at 5 mg/kg/day, po for 15 days (reference value: 14.85 +/- 2.43 mg/dl); format: organism-based; details: in vivo, 360 h
[18] = system: Rattus norvegicus; assay: Inhibition of L-T4-induced increase in hepatic 5-monodeiodinase-l activity in albino Wistar rat assessed as T3 formation at 5 mg/kg/day, po cotreated with 0.5 mg/kg L-T4 for 15 days by RIA; format: functional, organism-based
[19] = system: Rattus norvegicus; assay: Inhibition of L-T4-induced loss of body weight in albino Wistar rat assessed as increase in body weight at 5 mg/kg/day, po cotreated with 0.5 mg/kg L-T4 for 15 days […]; format: functional, organism-based
[20] = system: Rattus norvegicus; assay: Inhibition of L-T4-induced decrease in very low-density lipoprotein cholesterol in albino Wistar rat at 5 mg/kg/day, po cotreated with 0.5 mg/kg L-T4 for 15 days (reference value: 8.65 +/- 2.76 mg/dl); format: functional
[21] = system: Rattus norvegicus; assay: Inhibition of L-T4-induced increase in lipid peroxidation in albino Wistar rat assessed as malondialdehyde formed per mg of protein at 2.5 mg/kg/day, po cotreated with 0.5 mg/kg L-T4 for 15 days (reference value: 0.977 +/- 0.035 nM/hr); format: functional
[22] = system: Rattus norvegicus; assay: Inhibition of L-T4-induced increase in lipid peroxidation in albino Wistar rat assessed as malondialdehyde formed per mg of protein at 5 mg/kg/day, po cotreated with 0.5 mg/kg L-T4 for 15 days (reference value: 0.977 +/- 0.035 nM/hr); format: functional
[23] = system: Rattus norvegicus; assay: Inhibition of L-T4-induced increase in T4 level in albino Wistar rat at 5 mg/kg/day, po cotreated with 0.5 mg/kg L-T4 for 15 days by RIA (reference value: 112.86 +/- 4.77 ng/ml); format: functional
[24] = system: Rattus norvegicus; assay: Inhibition of L-T4-induced decrease in SOD activity in albino Wistar rat liver at 5 mg/kg/day, po cotreated with 0.5 mg/kg L-T4 for 15 days; format: functional, organism-based
[25] = system: Rattus norvegicus; assay: Inhibition of L-T4-induced decrease in high-density lipoprotein cholesterol in albino Wistar rat at 5 mg/kg/day, po cotreated with 0.5 mg/kg L-T4 for 15 days (reference value: 20.18 +/- 2.32 mg/dl); format: functional

Q: What does the source list for `COc1cc(-c2cc(=O)c3c(O[C@@H]4O[C@@H](C)[C@H](O)[C@@H](O)[C@H]4O)c(OC)c(O)cc3o2)ccc1O`?
A: Activity [1]: 96.22 mg/dL; Activity [2]: 1.01 ng/mL; inhibition [3]: Active; Activity [4]: 72.42 mg/dL; Activity [5]: 102.45 ng/mL; Activity [6]: 98.6 ng/mL; Activity [7]: 0.43 ng/mL; Activity [8]: 48.97 mg/dL; inhibition [9]: Active; Activity [10]: 98.14 mg/dL; Activity [11]: 60.16 mg/dL; Activity [12]: 61.1 mg/dL; Activity [13]: 68.31 mg/dL; Activity [14]: 1.39 ng/mL; inhibition [15]: Active; Activity [16]: 0.512 nM/h; Activity [17]: 12.91 mg/dL; inhibition [18]: Active; Activity [19]: Active; Activity [20]: 14.09 mg/dL; Activity [21]: 0.619 nM/h; Activity [22]: 0.239 nM/h; Activity [23]: 56.7 ng/mL; inhibition [24]: Active; Activity [25]: 40.95 mg/dL
